We go through ten compounds from US20090227619A1, “Harmine derivatives, intermediates used in their preparations, preparation processes and use therefo” (priority 2003, published 2009).

Data set [1] has as its system PLA-801. Description: In vitro cytotoxicity, IC50 by MTT method, PLA-801. The class given is cell-based. The procedure, abridged: (§1)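 MTT viability, 48 h exposure: cells 10^5/ml in RPMI1640 + 10% FBS, 37 °C/5% CO2; MTT 4 h, DMSO solubilisation, A490.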
For orientation: Tetrazolium dyes change colour on reduction, which living cells bring about.

In data set [2] the test system is Bel-7402. Kind of data set: In vitro cytotoxicity, IC50 by MTT method, Bel-7402. The class given is cell-based. Put shortly:
as §1

Data set [3] is described as follows: Solubility (physico-chemical data tables). Conditions: qualitative.
In data set [4] the test system is BGC-823. Kind of data set: In vitro cytotoxicity, IC50 by MTT method, BGC-823. The class given is cell-based. The procedure, abridged:
as §1

Data set [5] deals with Lovo. Kind of data set: In vitro cytotoxicity, IC50 by MTT method, Lovo. The class given is cell-based. The procedure, abridged: as §1
The subject of data set [6] is Hela. Description: In vitro cytotoxicity, IC50 by MTT method, Hela. The class given is cell-based. The procedure, abridged: as §1
In data set [7] the test system is NIH3T3. Description: In vitro cytotoxicity, IC50 by MTT method, NIH3T3. The class given is cell-based. Put shortly: as §1
Data set [8] has as its system HepG2. Kind of data set: In vitro cytotoxicity, IC50 by MTT method, HepG2. The class given is cell-based, human. The procedure, abridged:
as §1

Data set [9] concerns S180 sarcoma. Conditions: comparison table 43, in vivo, S180 sarcoma.
Description: There was one group of 8 to 10 mice C57BL/6 and Kunming mice for the anti-tumor tests and two groups of mice for negative control.
(3) Sources of tumors: Lewis lung cancer cells and S180 sarcoma in mice, which were sub-cultured and maintained by Pharmacological Center of Shanghai Pharmaceutical Industrial Research Institute.
All samples were weighed and added a small amount of Tween-80 to facilitate dissolution during the experiment, and then 0.5% CMC-Na solution was gradually added to achieve the desired concentration. The volume for experiment was 0.5 ml/20 g mouse.
The medicaments were intraperitoneally administered once a day continuously for 10 days.
For the negative control group, a vehicle of the same volume was intraperitoneally administered once a day continuously for 10 days. For the positive control group, CTX was administered in the dosage of 30 mg/kg once a day continuously for 7 days.
In vivo anti-tumor subcutaneous vaccination in the axilla was employed. Wildly grown tumor source was taken under sterile conditions to form a cell suspension of about 1×10^7 ml by homogenization method. For a corresponding mouse host, the suspension was injected in the axilla in an amount of 0.2 ml/mouse. The next day, the medicaments were administered according to the design of the tests. About three weeks later, all the groups of animals were executed. The tumors were taken from the animals and weighed. The inhibition rate of tumors was calculated according to the following formula:
T: average tumor weight of treated group; C: average tumor weight of negative control group.
The test system of data set [10] is CT-DNA. Kind of data set: UV absorption spectrum method with CT-DNA. The class given is binding. Conditions: CT-DNA 40 ug/ml, compound 20 uM, 37° C. for 2 h, OD at 260 nm. The procedure:
Compounds to be tested (20 uM) were added into the PE buffer solution, and its scan curve was identified by the spectrograph at a wavelength of from 200 to 400 nm. CT-DNA (40 ug/ml) and compounds to be tested (20 uM) were added into the PE buffer solution. The mixture was cultured at 37° C. for 2 h, and its scan curve was identified by the UV spectrograph at a wavelength of from 200 to 400 nm. […] After that, the OD value at 260 nm of the scan curve of the medicaments tested and that of the CT-DNA mixture OD value at 260 nm of the scan curve were calculated and compared to determine the influences of the medicaments tested on the UV absorption spectrum of the DNA molecules.

The subject of data set [11] is Lewis lung cancer. Conditions: comparison table 43, in vivo, Lewis lung cancer.
The subject of data set [12] is CT-DNA. Kind of data set: DNA thermal denaturation, determination of ΔTm. The class given is binding. Conditions: CT-DNA thermal denaturation; 20 uM compound; Tm of CT-DNA alone 61° C. The procedure: Experiments were carried out in PE buffer (1 mM Na2HPO4, 0.1 mM EDTA, pH 7.6) in a thermostatically controlled cell hold, and the quartz cuvette (1 cm path length) was heated by circulating water at a heating rate of 0.5° C./min from 25 to 95° C. Amsacrine and Doxorubicin Hydrochloride were used as standards. In all cases, the concentration of CT-DNA was 15 ug/ml. The ‘melting’ temperature Tm was taken as the mid-point of the hyperchromic transition.
ΔTm=Tm^drug-DNA complex−Tm^DNA alone
The ΔTm of each compound was calculated, Experiments were repeated three times, and an average value was calculated.

Setting [13] is: PLA-801 cell strain, read-out: IC50 PLA-801.
Setting [14] is: Homo sapiens, Bel-7402, Bel7402 cell strain, read-out: IC50 Bel7402.
The mark [15] stands for this setting: Table 15, 1,3,9-substituted β-carboline derivatives.
Setting [16] is: Homo sapiens, BGC-823, BGC823 cell strain, read-out: IC50 BGC823.
[17] abbreviates: Homo sapiens, Lovo cell strain, read-out: IC50 Lovo.
Where [18] appears, read: Homo sapiens, Hela cell strain, read-out: IC50 Hela.
Setting [19] is: Mus musculus, NIH3T3 cell strain, read-out: IC50 NIH3T3.
Setting [20] is: Homo sapiens, HepG2 cell strain, read-out: IC50 HepG2.
Where [21] appears, read: Bel7402 cell strain, read-out: IC50 Bel7402.
Where [22] appears, read: Table 12, 3,9-disubstituted β-carboline derivatives.
Setting [23] is: BGC823 cell strain, read-out: IC50 BGC823.
The mark [24] stands for this setting: Lovo cell strain, read-out: IC50 Lovo.
[25] abbreviates: Hela cell strain, read-out: IC50 Hela.
[26] abbreviates: NIH3T3 cell strain, read-out: IC50 NIH3T3.
[27] abbreviates: HepG2 cell strain, read-out: IC50 HepG2.

Values joined by “and” are separate entries in the source; they are usually repeats but may differ in a detail not shown here. Identical values can stand only once. Like-named read-outs stand apart in the source and are kept apart here. Bounds are passed on as bounds.
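For Inhibition rate (%) Lewis cancer in this document: mice implanted subcutaneously in the axilla with Lewis lung tumor cells, treated starting the following day, killed roughly three weeks after implantation.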

One may read the IC50 as the midpoint of a concentration-inhibition curve. By melting point is commonly meant the temperature of the solid-liquid transition. In the case of `Cn1c2ccccc2c2cc(C(=O)O)nc(-c3ccccc3)c21` [Compound 78, 9-methyl-1-phenyl-β-carboline-3-carboxylic acid], the melting point is 223 to 234 °C and 223 to 224 °C. Further, the half-inhibitory concentration (IC50) in data set [1] (setting [13]) is 650 µM. Also, in data set [2] (setting [14]), the IC50 was determined as 280 µM. For the same compound, the Solubility result in data set [3] (setting [15]) was “soluble in DMSO”. Further, the 50% inhibitory concentration (IC50) in [4] (setting [16]) was 210 µM. Also, the IC50 in [5] (setting [17]) was 110 µM. In addition, the IC50 in data set [6] (setting [18]) came out at 170 µM. Further, in data set [7] (setting [19]), the half-maximal inhibitory concentration (IC50) was 150 µM. Besides, in data set [8] (setting [20]), the concentration for half-maximal inhibition (IC50) is 160 µM.

A word on the ΔTm: it is the change in melting temperature against a reference sample. For the compound `COc1ccc2c(c1)[nH]c1c(C)nccc12` [Compound 1, reference compound], the IC50 in [1] was determined as 50 µM; in data set [2] (Homo sapiens, Bel-7402) it was 20 µM; in data set [4] (Homo sapiens, BGC-823), 70 µM; in data set [5] (Homo sapiens, LoVo), 70 µM; in data set [6] (Homo sapiens, HeLa), 60 µM; in data set [7] (Mus musculus, NIH3T3), 60 µM. In data set [8] (Homo sapiens, HepG2), this compound displayed an IC50 of 50 µM. Besides, the “Inhibition rate (%) S180 sarcomata” value in [9] is on record as 15.3%. In [10], the “Influence on the UV absorption of DNA” value is “reduce the UV absorption of DNA”. Moreover, in [11], the “Inhibition rate (%) Lewis cancer” value worked out at 34.1%. Further, the ΔTm in [12] amounted to 8.5 °C.

`CCCCn1c2ccccc2c2ccncc21` [Compound 83, 9-n-butyl-β-carboline]: the melting point is 78 to 79 °C. Further, in data set [1] (setting [13]), the IC50 was 130 µM. The IC50 in data set [2] (setting [14]) came to 160 µM. Further, the IC50 in data set [4] (setting [16]) was 100 µM. Moreover, the concentration for half-maximal inhibition (IC50) in data set [5] (setting [17]) stood at 130 µM. Moreover, in data set [10], the “Influence on the UV absorption of DNA” value was “reduce the UV absorption of DNA”. In data set [6] (setting [18]), the IC50 came to 90 µM. For the same compound, the 50% inhibitory concentration (IC50) in [7] (setting [19]) worked out at 80 µM. The IC50 in [8] (setting [20]) was 100 µM. In addition, the ΔTm in [12] was determined as 2.4 °C.

For the compound `Cc1nc(C(=O)O)cc2c3ccccc3n(Cc3ccccc3)c12` [Compound 64, 9-benzyl-1-methyl-β-carboline-3-carboxylic acid], the melting point lay within 246 to 248 °C. Besides, the IC50 in [1] (setting [13]) is 410 µM. The IC50 in data set [2] (setting [14]) amounted to 690 µM. Further, the Solubility result in data set [3] (setting [15]) is recorded as “soluble in DMSO”. Further, the IC50 in data set [4] (setting [16]) was found to be 280 µM. For the same compound, in data set [5] (setting [17]), the half-inhibitory concentration (IC50) is 200 µM. Besides, the IC50 in [6] (setting [18]) was determined as 370 µM. In [7] (setting [19]), the half-inhibitory concentration (IC50) worked out at 140 µM. The IC50 in data set [8] (setting [20]) amounted to 280 µM.

In the case of `O=C(Cn1c2ccccc2c2cc(C(=O)O)ncc21)c1ccccc1` [Compound 50, 9-acetophenone-β-carboline-3-carboxylic acid], the IC50 turned out to be 140 µM in data set [1] (setting [13]); 140 µM in data set [2] (setting [21]); 60 µM in data set [4] (setting [23]); 70 µM in data set [5] (setting [24]); 70 µM in data set [6] (setting [25]); 50 µM in data set [7] (setting [26]). Besides, the concentration for half-maximal inhibition (IC50) in [8] (setting [27]) stood at 90 µM. Besides, the Solubility result in data set [3] (setting [22]) is recorded as “soluble in DMSO”.

In turn, `CCn1c2ccccc2c2cc(C(=O)O)nc(-c3ccccc3)c21` [Compound 79, 9-ethyl-1-phenyl-β-carboline-3-carboxylic acid] displayed a melting point of 194 to 195 °C. In [1] (setting [13]), the IC50 came out at 110 µM. Further, the half-inhibitory concentration (IC50) in data set [2] (setting [14]) was 140 µM. Also, the Solubility entry in data set [3] (setting [15]) is given as “soluble in DMSO”. Further, the half-inhibitory concentration (IC50) in [4] (setting [16]) stood at 250 µM. For the same compound, in data set [5] (setting [17]), the IC50 came out at 100 µM. Further, the concentration for half-maximal inhibition (IC50) in [6] (setting [18]) is 140 µM. The IC50 in data set [7] (setting [19]) stood at 120 µM. In data set [8] (setting [20]), the half-inhibitory concentration (IC50) is 160 µM.

For `Cc1nc(C(=O)O)cc2c3ccccc3n(CC(=O)c3ccccc3)c12` [Compound 67, 9-acetophenone-1-methyl-β-carboline-3-carboxylic acid], the IC50 in [1] (setting [13]) was 2000 µM; in data set [2] (setting [21]) it was > 3000 µM; in [4] (setting [23]), 1520 µM; in [5] (setting [24]), 1340 µM; in data set [6] (setting [25]), 2480 µM; in data set [7] (setting [26]), 1460 µM. The half-inhibitory concentration (IC50) in [8] (setting [27]) was determined as 2230 µM. In [3] (setting [15]), the Solubility entry is “soluble in DMSO”.

Take `O=C(O)c1cc2c3ccccc3n(Cc3c(F)c(F)c(F)c(F)c3F)c2cn1` [Compound 49, 9-(2′,3′,4′,5′,6′-pentafluoro)benzyl-β-carboline-3-carboxylic acid]: the IC50 was 90 µM in [1] (setting [13]); 60 µM in data set [2] (setting [21]); 40 µM in data set [4] (setting [23]); 10 µM in data set [5] (setting [24]); 40 µM in data set [6] (setting [25]); 20 µM in data set [7] (setting [26]). Besides, the IC50 in [8] (setting [27]) came to 30 µM. In [3] (setting [22]), the Solubility result is “soluble in DMSO”. Moreover, the “Influence on the UV absorption of DNA” value in data set [10] is “increase the UV absorption of DNA”.

As for `CCCc1nc(C(=O)O)cc2c3ccccc3n(Cc3ccccc3)c12` [Compound 74, 9-benzyl-1-propyl-β-carboline-3-carboxylic acid], the melting point was in the range of 193 to 194 °C. For the same compound, in [1] (setting [13]), the IC50 came to 270 µM. Further, the half-maximal inhibitory concentration (IC50) in [2] (setting [14]) was determined as 180 µM. Also, in [3] (setting [15]), the Solubility entry was “soluble in DMSO”. For the same compound, in [4] (setting [16]), the IC50 worked out at 270 µM. Besides, the IC50 in data set [5] (setting [17]) is 140 µM. Also, the 50% inhibitory concentration (IC50) in data set [6] (setting [18]) turned out to be 160 µM. Further, the IC50 in data set [7] (setting [19]) amounted to 160 µM. Moreover, the concentration for half-maximal inhibition (IC50) in [8] (setting [20]) stood at 170 µM.

Regarding `Cc1nc(C(=O)O)cc2c3ccccc3n(Cc3c(F)c(F)c(F)c(F)c3F)c12` [Compound 66, 9-(2′,3′,4′,5′,6′-pentafluoro)benzyl-1-methyl-β-carboline-3-carboxylic acid], the 50% inhibitory concentration (IC50) stood at 190 µM in data set [1] (setting [13]); 120 µM in data set [2] (setting [21]); 160 µM in data set [4] (setting [23]); 80 µM in [5] (setting [24]); 110 µM in data set [6] (setting [25]); 80 µM in [7] (setting [26]). The IC50 in data set [8] (setting [27]) is 120 µM. In addition, the Solubility result in [3] (setting [15]) is given as “soluble in DMSO”. Moreover, the “Influence on the UV absorption of DNA” value in [10] is “increase the UV absorption of DNA”.
